Here are results for 29 compounds from patent publication US20260159528A1, “HETEROCYCLIC COMPOUNDS AS TRIGGERING RECEPTOR EXPRESSED ON MYELOID CELLS 2 AGONISTS AND METHODS OF USE” (Vigil Neuroscience, Inc., priority 2021, published 2026).

pEC50: −log10 of the molar value.

In this assay the target is T1, human TREM2 (Homo sapiens, UniProt Q9NZC2).
T1 construct: expressed in transfected cells; host or cells: HEK293T
T1 sequence (Q9NZC2 19-230): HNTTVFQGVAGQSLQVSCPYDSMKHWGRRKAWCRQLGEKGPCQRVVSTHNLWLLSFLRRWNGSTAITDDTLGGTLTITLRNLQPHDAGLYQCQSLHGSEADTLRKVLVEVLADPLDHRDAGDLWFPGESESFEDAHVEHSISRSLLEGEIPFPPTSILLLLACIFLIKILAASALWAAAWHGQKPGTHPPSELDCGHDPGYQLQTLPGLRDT
T1 sequence (O43914 22-113 partner): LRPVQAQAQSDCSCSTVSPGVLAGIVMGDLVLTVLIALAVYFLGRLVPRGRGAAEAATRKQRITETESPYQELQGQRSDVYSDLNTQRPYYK
Description: TREM2 agonist potency by cellular Syk phosphorylation (AlphaLisa) in HEK293T-hTREM2 cells. Conditions: Table D-2; HEK293 cells expressing human TREM2 and DAP12; pSyk AlphaLisa. The assay is classed as cell-based. As to the method:
In vitro Measurement of Triggering Receptor Expressed on Myeloid Cells 2 activity using cellular phosphorylation of Spleen Tyrosine Kinase (“Syk”) Assays
Measurement of TREM2 agonist potency was done using a HEK cell line expressing human TREM2 and DAP12 (HEK293T-hTREM2 cells). Binding of small molecules to, and activation of, TREM2 increases the phosphorylation of Syk. The resultant levels of Syk phosphorylation are measured using a commercial AlphaLisa reagent kit. To perform the assay, HEK-hTREM2 cells were plated at 14,000 cells per well in a 384 well plate, in 25 µL of complete growth media and incubated at 37° C., 5% CO2 for 20-24 hours.
Prior to the assay, test compounds were diluted in the 384 well plates in assay buffer and allowed to equilibrate for 30 minutes. Growth media was removed from cell plates by inversion on blotting paper, and 25 μL of test articles in assay buffer was added to cells. Cells were incubated for 45 minutes at room temperature. After 45 minutes, assay buffer was removed and 10 μL of lysis buffer was added. Plates were shaken for 20 minutes at 350 RPM at room temperature. After complete lysis, AlphaLisa reagents were added to the lysate, and fluorescence intensity was measured using a Perkin Elmer Envision plate reader. Intensities were used to generate a standard curve, and % activation was calculated. Curve fitting was performed using Prism v9 software, log(agonist) vs response—variable slope (four parameters), and EC50s were calculated from the curve fit.
The results presented in Table D have been generated with the in vitro assay described above. This assay may be used to test any of the compounds described herein to assess and characterize a compound's ability to act as an agonist of TREM2.
Background: In Alpha technology, singlet oxygen from a donor bead excites a nearby acceptor bead.
For the compound `COCn1cc([C@H]2CN(c3nc(-c4ccc(C(F)(F)F)cc4F)c4sc(N(C)C)nc4n3)C[C@@H](C)O2)cn1` [Compound I-149, 7-[2-fluoro-4-(trifluoromethyl)phenyl]-5-[(2S,6R)-2-[1-(methoxymethyl)pyrazol-4-yl]-6-methyl-morpholin-4-yl]-N,N-dimethyl-thiazolo[4,5-d]pyrimidin-2-amine], the pEC50 is 6.30 to 7.30.
To `COCn1cc([C@H]2CN(c3nc(-c4ccc(F)cc4F)c4sc(N(C)C)nc4n3)C[C@@H](C)O2)cn1` [Compound I-230, 7-(2,4-difluorophenyl)-5-[(2S,6R)-2-[1-(methoxymethyl)pyrazol-4-yl]-6-methyl-morpholin-4-yl]-N,N-dimethyl-thiazolo[4,5-d]pyrimidin-2-amine] belongs at least 7.30.
For `C[C@@H]1CN(c2nc(-c3ccc(C(F)(F)F)cc3F)c3c(n2)nc(N(C)C)n3C)C[C@H](c2cnn(C3CC3)c2)O1` [Compound I-283, 2-((2S,6R)-2-(1-cyclopropyl-1H-pyrazol-4-yl)-6-methylmorpholino)-6-(2-fluoro-4-(trifluoromethyl)phenyl)-N,N,7-trimethyl-7H-purin-8-amine] the value was at least 7.30; for `CN(C)c1nc2nc(C3CCOC(c4ccc(=O)n(C)c4)C3)nc(-c3ccc(F)cc3F)c2s1` (racemic) [Compound I-288, 5-[4-[7-(2,4-difluorophenyl)-2-(dimethylamino)thiazolo[4,5-d]pyrimidin-5-yl]tetrahydropyran-2-yl]-1-methyl-pyridin-2-one], at least 7.30.
For `CO[C@@H]1CCN(c2nc3nc([C@H]4CCO[C@@H](c5cnn(C6CC6)c5)C4)nc(-c4ccc(C(F)(F)F)cc4F)c3s2)C1` [Compound I-164, 5-((2R,4S)-2-(1-cyclopropyl-1H-pyrazol-4-yl)tetrahydro-2H-pyran-4-yl)-7-(2-fluoro-4-(trifluoromethyl)phenyl)-2-((R)-3-methoxypyrrolidin-1-yl)thiazolo[4,5-d]pyrimidine] the value was 6.30 to 7.30; for `CCn1/c(=N\C)sc2c(-c3ccc(Cl)cc3F)nc(N3C[C@@H](C)O[C@@H](c4cnn(C5CC5)c4)C3)nc21` [Compound I-154, (E)-7-(4-chloro-2-fluoro-phenyl)-3-ethyl-N-methyl-5-[(2S,6R)-2-(1-cyclopropylpyrazol-4-yl)-6-methyl-morpholin-4-yl]thiazolo[4,5-d]pyrimidin-2-imine], 5.52 to 6.30.
In turn, `C[C@@H]1CN(c2nc(-c3cc(F)c(F)cc3F)c3sc(N(C)C)nc3n2)C[C@H](c2cnn(C3CC3)c2)O1` [Compound I-273, 5-[(2S,6R)-2-(1-cyclopropylpyrazol-4-yl)-6-methyl-morpholin-4-yl]-N,N-dimethyl-7-(2,4,5-trifluorophenyl)thiazolo[4,5-d]pyrimidin-2-amine] gave a negative-log EC50 (pEC50) of at least 7.30.
The compound `CN(C)c1nc2nc([C@H]3CCO[C@@H](c4cnn(C5CC5)c4)C3)nc(-c3ccc(Cl)cc3F)c2s1` (single isomer, unassigned) [Compound I-79] showed a pEC50 of at least 7.30.
`CNc1nc2nc(N3C[C@@H](C)O[C@@H](c4cnn(C5CC5)c4)C3)nc(-c3ccc(Cl)cc3F)c2s1` (single isomer, unassigned) [Compound I-94] gave a pEC50 of 6.30 to 7.30.
To `C[C@@H]1CN(c2nc(-c3ccc(Cl)cc3F)c3sc(N(C)CCF)nc3n2)C[C@H](c2cnn(C3CC3)c2)O1` (single isomer, unassigned) [Compound I-114] belongs 6.30 to 7.30; to `CC(C)n1cc2c(-c3ccc(F)cc3F)nc(N3C[C@@H](C)O[C@@H](c4cnn(C5CC5)c4)C3)nc2n1` [Compound I-129, (2S,6R)-2-(1-cyclopropyl-1H-pyrazol-4-yl)-4-(4-(2,4-difluorophenyl)-2-isopropyl-2H-pyrazolo[3,4-d]pyrimidin-6-yl)-6-methylmorpholine], 6.30 to 7.30.
To `CO[C@@H]1CCN(c2nc3nc(N4C[C@@H](C)O[C@@H](c5cnn(C6CC6)c5)C4)nc(-c4ccc(F)cc4F)c3s2)C1` [Compound I-221, (2S,6R)-2-(1-cyclopropyl-1H-pyrazol-4-yl)-4-(7-(2,4-difluorophenyl)-2-((R)-3-methoxypyrrolidin-1-yl)thiazolo[4,5-d]pyrimidin-5-yl)-6-methylmorpholine] belongs at least 7.30; to `Fc1cc(C(F)(F)F)ccc1-c1nc([C@H]2CCO[C@@H](c3cnn(C4CC4)c3)C2)nc2nc(C3CC3)sc12` (single isomer, unassigned) [Compound I-279], at least 7.30; to `CN(C)c1nc2nc([C@@H]3CCO[C@@H](c4ccc(=O)n(C)c4)C3)nc(-c3ccc(F)cc3F)c2s1` (racemic) [Compound I-289, 5-[(2R,4R)-4-[7-(2,4-difluorophenyl)-2-(dimethylamino)thiazolo[4,5-d]pyrimidin-5-yl]tetrahydropyran-2-yl]-1-methyl-pyridin-2-one], 6.30 to 7.30.
To `C/N=c1/sc2c(-c3ccc(Cl)cc3F)nc(N3C[C@@H](C)O[C@@H](c4cnn(C5CC5)c4)C3)nc2n1CCF` [Compound I-159, (E)-7-(4-chloro-2-fluoro-phenyl)-3-(2-fluoroethyl)-N-methyl-5-[(2S,6R)-2-(1-cyclopropylpyrazol-4-yl)-6-methyl-morpholin-4-yl]thiazolo[4,5-d]pyrimidin-2-imine] belongs 5.52 to 6.30; to `Cc1cc(C2CCCN(c3nc(-c4ccc(C(F)(F)F)cc4F)c4sc(N(C)C)nc4n3)C2)ccn1` (racemic) [Compound I-196, 7-(2-fluoro-4-(trifluoromethyl)phenyl)-N,N-dimethyl-5-(3-(2-methylpyridin-4-yl)piperidin-1-yl)thiazolo[4,5-d]pyrimidin-2-amine], 6.30 to 7.30.
In turn, `CC(C)n1ncc2c(-c3ccc(F)cc3F)nc(N3C[C@@H](C)O[C@@H](c4cnn(C5CC5)c4)C3)nc21` [Compound I-139] showed a pEC50 of 5.52 to 6.30.
To `CN(C)c1nc2nc([C@H]3CCO[C@@H](c4cnn(C5CC5)c4)C3)nc(-c3ccc(C(F)(F)F)cc3F)c2s1` (single isomer, unassigned) [Compound I-134] belongs 6.30 to 7.30; to `Fc1cc(C(F)(F)F)ccc1-c1nc([C@@H]2CCO[C@@H](c3cnn(C4CC4)c3)C2)nc2nc(N3CCC3)sc12` (single isomer, unassigned) [Compound I-248], 6.30 to 7.30.
Compound `CN(C)c1nc2nc([C@H]3CCO[C@@H](c4cnn(C5CC5)c4)C3)nc(C3CCCCC3)c2s1` (single isomer, unassigned) [Compound I-174] showed a pEC50 of 5.52 to 6.30.
`CN(C)c1nc2nc(N3CCC(F)(F)[C@@H](c4cnn(C5CC5)c4)C3)nc(-c3ccc(C(F)(F)F)cc3F)c2s1` (single isomer, unassigned) [Compound I-199]: the pEC50 was 6.30 to 7.30.
For `Cn1c(N2CCC2)nc2nc([C@H]3CCO[C@@H](c4cnn(C5CC5)c4)C3)nc(-c3ccc(F)cc3F)c21` [Compound I-293, 8-(azetidin-1-yl)-2-((2R,4S)-2-(1-cyclopropyl-1H-pyrazol-4-yl)tetrahydro-2H-pyran-4-yl)-6-(2,4-difluorophenyl)-7-methyl-7H-purine] the value was 6.30 to 7.30; for `Cc1cc([C@H]2CN(c3nc(-c4ccc(C(F)(F)F)cc4F)c4sc(N(C)C)nc4n3)CCC2(F)F)ccn1` (single isomer, unassigned) [Compound I-202], 6.30 to 7.30.
For `C[C@@H]1CN(c2nc(-c3ccc(F)cc3F)c3c(n2)nc(N(C)C)n3C)C[C@H](c2cnn(C3CC3)c2)O1` [Compound I-144] the value was at least 7.30; for `C[C@@H]1CN(c2nc(-c3ccc(F)cc3F)c3c(ncn3C)n2)C[C@H](c2cnn(C3CC3)c2)O1` [Compound I-124, (2S,6R)-2-(1-cyclopropyl-1H-pyrazol-4-yl)-4-(6-(2,4-difluorophenyl)-7-methyl-7H-purin-2-yl)-6-methylmorpholine], 5.52 to 6.30.
To `C[C@@H]1CN(c2nc(-c3ccc(Cl)cc3F)c3sc(N(C)CC4CC4)nc3n2)C[C@H](c2cnn(C3CC3)c2)O1` [Compound I-109, 7-(4-chloro-2-fluoro-phenyl)-N-(cyclopropylmethyl)-N-methyl-5-[(2S,6R)-2-(1-cyclopropylpyrazol-4-yl)-6-methyl-morpholin-4-yl]thiazolo[4,5-d]pyrimidin-2-amine] belongs 6.30 to 7.30; to `C[C@@H]1CN(c2nc(-c3ccc(Cl)cc3F)c3sc(N(C)C)nc3n2)C[C@H](c2cnn(C3CC3)c2)O1` (racemic) [Compound I-22, 7-(4-chloro-2-fluoro-phenyl)-N,N-dimethyl-5-[rac-(2S,6R)-2-(1-cyclopropylpyrazol-4-yl)-6-methyl-morpholin-4-yl]thiazolo[4,5-d]pyrimidin-2-amine], 6.30 to 7.30; to `CN(C)c1nc2nc([C@H]3CCO[C@@H](c4cnn(C5CC5)c4)C3)nc(-c3ccc(F)cc3F)c2s1` (single isomer, unassigned) [Compound I-89], 6.30 to 7.30.
As for `Cc1cc(C2CN(c3nc(-c4ccc(C(F)(F)F)cc4F)c4sc(N(C)C)nc4n3)CCC2(F)F)ccn1` (racemic) [Compound I-188, 5-(4,4-difluoro-3-(2-methylpyridin-4-yl)piperidin-1-yl)-7-(2-fluoro-4-(trifluoromethyl)phenyl)-N,N-dimethylthiazolo[4,5-d]pyrimidin-2-amine], the negative-log EC50 (pEC50) was 6.30 to 7.30.

A word on the pEC50: it is the negative decadic logarithm of the EC50, by convention in mol/L. A higher pEC50 goes with a small EC50.
